Assay results: patent US10265275B2, “Phenolic coatings and methods of making and using same” (Northwestern University, priority 2013, dated 2019)
Where two headings read alike, the source gives them in different places.

Assay: Potentiometric titration, first pKa
Type: physicochemical
Experimental: In order to investigate the relationship between coating pH and deprotonation, coating precursor molecules were studied via potentiometric titrations. A solution of tannic acid was made by dissolving ˜1 mg in 2 mL of 100 mM KCl in a glass test tube to perform the titration. The TA and KOH solutions were degassed by aggressively sparging argon for no less than 30 min. Base was titrated in 1.0 μL increments, and the total amount added was 250 μL. If oxygen is purged correctly, the phenolic solution should display little or no change in color throughout the titration. The first pKa was calculated by initially plotting the volume of base added versus pH. The first derivative of this curve was then plotted as a function of pH, and the pKa was calculated by determining the pH associated with any local maxima.

[1] = first pKa minus optimal coating pH
[2] = aqueous 100 mM KCl solution, 100 mM KCl, degassed, KOH titration, read-out: First pKa

Compound	First pKa (100 mM KCl, degassed, KOH titration)	pKa − pH [1]	pKa − pH	pKa [2]	pKa
epigallocatechin-3-gallate [EGCG]	8.1	1.1	–	–	–
Oc1cccc(O)c1O [PG, 1,2,3-trihydroxybenzene]	–	–	2.3	9.3	–
O=C(OC[C@H]1O[C@@H](OC(=O)c2cc(O)c(O)c(OC(=O)c3cc(O)c(O)c(O)c3)c2)[C@H](OC(=O)c2cc(O)c(O)c(OC(=O)c3cc(O)c(O)c(O)c3)c2)[C@@H](OC(=O)c2cc(O)c(O)c(OC(=O)c3cc(O)c(O)c(O)c3)c2)[C@@H]1OC(=O)c1cc(O)c(O)c(OC(=O)c2cc(O)c(O)c(O)c2)c1)c1cc(O)c(O)c(OC(=O)c2cc(O)c(O)c(O)c2)c1 [Tannic acid, tannic acid]	–	–	0.7	–	7.7
Oc1ccc(O)c(O)c1 [HHQ, hydroxyhydroquinone]	–	–	3.1	–	9.1
Oc1ccccc1O [Catechol, catechol]	–	1.5	–	9.5	–
